Source: the supplement of paper PMC4862054

Test system: MDA-MB-468
Assay: drug sensitivity score (DSS), CellTox Green (DSS (AUC-based score)); higher = stronger drug effect (viability inhibition or cytotoxicity); extreme values may be limits of the assay
Conditions: incubation time: 72 h
Method in brief: (§1)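 Breast cancer cell lines (20 µl suspension) were seeded into 384-well plates holding compound at 5 concentrations in 10-fold steps over a compound-specific 10,000-fold range, then incubated 72 h. CellTox Green fluorescence (485/520 nm) was read first, then CellTiter-Glo luminescence after 10 min at room temperature. Each plate was normalised to 0.1 % DMSO and a positive kill control. The drug sensitivity score was calculated from the area under the fitted dose-response curve.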

| Structure (SMILES) | drug sensitivity score |
| --- | --- |
| CC(=O)c1c(C)c2cnc(Nc3ccc(N4CCNCC4)cn3)nc2n(C2CCCC2)c1=O [Palbociclib] | 0 |

Test system: MFM-223
Assay: as above
Conditions: incubation time: 72 h
Method in brief: as §1

| Structure (SMILES) | drug sensitivity score |
| --- | --- |
| CC1(C)CCC(CN2CCN(c3ccc(C(=O)NS(=O)(=O)c4ccc(NCC5CCOCC5)c([N+](=O)[O-])c4)c(Oc4cnc5[nH]ccc5c4)c3)CC2)=C(c2ccc(Cl)cc2)C1 [ABT-199] | 0 |
| Oc1ncnc2[nH]ncc12 [Allopurinol] | 0 |
| O=C1CN2Cc3c(ccc(Cl)c3Cl)N=C2N1 [Anagrelide] | 0 |
| CC1=C2C[C@H]3[C@@H](CC=C4C[C@@H](O)CC[C@@]43C)[C@@H]2CC[C@]12O[C@@H]1C[C@H](C)CN[C@H]1[C@H]2C [Cyclopamine] | 0 |
| CC(=O)N(O)CCCCCNC(=O)CCC(=O)N(O)CCCCCNC(=O)CCC(=O)N(O)CCCCCN [Deferoxamine] | 0 |
| C[C@]12CC[C@@H]3c4ccc(OC(=O)N(CCCl)CCCl)cc4CC[C@H]3[C@@H]1CC[C@@H]2O [Estramustine] | 0 |
| CC(=O)c1c(C)c2cnc(Nc3ccc(N4CCNCC4)cn3)nc2n(C2CCCC2)c1=O [Palbociclib] | 0 |
| CC[C@@H]1C(=O)OC[C@@H]1Cc1cncn1C [Pilocarpine] | 0 |

Test system: CAL-85-1
Assay: as above
Conditions: incubation time: 72 h
Method in brief: as §1

| Structure (SMILES) | drug sensitivity score |
| --- | --- |
| CC1(C)CCC(CN2CCN(c3ccc(C(=O)NS(=O)(=O)c4ccc(NCC5CCOCC5)c([N+](=O)[O-])c4)c(Oc4cnc5[nH]ccc5c4)c3)CC2)=C(c2ccc(Cl)cc2)C1 [ABT-199] | 0 |
| Oc1ncnc2[nH]ncc12 [Allopurinol] | 0.422 |
| O=C1CN2Cc3c(ccc(Cl)c3Cl)N=C2N1 [Anagrelide] | 0 |
| CC1=C2C[C@H]3[C@@H](CC=C4C[C@@H](O)CC[C@@]43C)[C@@H]2CC[C@]12O[C@@H]1C[C@H](C)CN[C@H]1[C@H]2C [Cyclopamine] | 0 |
| CC(=O)N(O)CCCCCNC(=O)CCC(=O)N(O)CCCCCNC(=O)CCC(=O)N(O)CCCCCN [Deferoxamine] | 0 |
| C[C@]12CC[C@@H]3c4ccc(OC(=O)N(CCCl)CCCl)cc4CC[C@H]3[C@@H]1CC[C@@H]2O [Estramustine] | 0 |
| CC(=O)c1c(C)c2cnc(Nc3ccc(N4CCNCC4)cn3)nc2n(C2CCCC2)c1=O [Palbociclib] | 0 |
| CC[C@@H]1C(=O)OC[C@@H]1Cc1cncn1C [Pilocarpine] | 0 |

Test system: MDA-MB-231
Assay: as above
Conditions: incubation time: 72 h
Method in brief: as §1

| Structure (SMILES) | drug sensitivity score |
| --- | --- |
| CC1(C)CCC(CN2CCN(c3ccc(C(=O)NS(=O)(=O)c4ccc(NCC5CCOCC5)c([N+](=O)[O-])c4)c(Oc4cnc5[nH]ccc5c4)c3)CC2)=C(c2ccc(Cl)cc2)C1 [ABT-199] | 3.14 |
| Oc1ncnc2[nH]ncc12 [Allopurinol] | 0 |
| O=C1CN2Cc3c(ccc(Cl)c3Cl)N=C2N1 [Anagrelide] | 0 |
| CC1=C2C[C@H]3[C@@H](CC=C4C[C@@H](O)CC[C@@]43C)[C@@H]2CC[C@]12O[C@@H]1C[C@H](C)CN[C@H]1[C@H]2C [Cyclopamine] | 0 |
| CC(=O)N(O)CCCCCNC(=O)CCC(=O)N(O)CCCCCNC(=O)CCC(=O)N(O)CCCCCN [Deferoxamine] | 0 |
| C[C@]12CC[C@@H]3c4ccc(OC(=O)N(CCCl)CCCl)cc4CC[C@H]3[C@@H]1CC[C@@H]2O [Estramustine] | 0 |
| CC(=O)c1c(C)c2cnc(Nc3ccc(N4CCNCC4)cn3)nc2n(C2CCCC2)c1=O [Palbociclib] | 0 |
| CC[C@@H]1C(=O)OC[C@@H]1Cc1cncn1C [Pilocarpine] | 0 |

Test system: BT-549
Assay: as above
Conditions: incubation time: 72 h
Method in brief: as §1

| Structure (SMILES) | drug sensitivity score |
| --- | --- |
| CC1(C)CCC(CN2CCN(c3ccc(C(=O)NS(=O)(=O)c4ccc(NCC5CCOCC5)c([N+](=O)[O-])c4)c(Oc4cnc5[nH]ccc5c4)c3)CC2)=C(c2ccc(Cl)cc2)C1 [ABT-199] | 1.45 |
| Oc1ncnc2[nH]ncc12 [Allopurinol] | 0 |
| O=C1CN2Cc3c(ccc(Cl)c3Cl)N=C2N1 [Anagrelide] | 0 |
| CC1=C2C[C@H]3[C@@H](CC=C4C[C@@H](O)CC[C@@]43C)[C@@H]2CC[C@]12O[C@@H]1C[C@H](C)CN[C@H]1[C@H]2C [Cyclopamine] | 0 |
| CC(=O)N(O)CCCCCNC(=O)CCC(=O)N(O)CCCCCNC(=O)CCC(=O)N(O)CCCCCN [Deferoxamine] | 0 |
| C[C@]12CC[C@@H]3c4ccc(OC(=O)N(CCCl)CCCl)cc4CC[C@H]3[C@@H]1CC[C@@H]2O [Estramustine] | 2.52 |
| CC(=O)c1c(C)c2cnc(Nc3ccc(N4CCNCC4)cn3)nc2n(C2CCCC2)c1=O [Palbociclib] | 0 |
| CC[C@@H]1C(=O)OC[C@@H]1Cc1cncn1C [Pilocarpine] | 0 |

Test system: HDQ-P1
Assay: as above
Conditions: incubation time: 72 h
Method in brief: as §1

| Structure (SMILES) | drug sensitivity score |
| --- | --- |
| CC1(C)CCC(CN2CCN(c3ccc(C(=O)NS(=O)(=O)c4ccc(NCC5CCOCC5)c([N+](=O)[O-])c4)c(Oc4cnc5[nH]ccc5c4)c3)CC2)=C(c2ccc(Cl)cc2)C1 [ABT-199] | 0 |
| Oc1ncnc2[nH]ncc12 [Allopurinol] | 0 |
| O=C1CN2Cc3c(ccc(Cl)c3Cl)N=C2N1 [Anagrelide] | 0 |
| CC1=C2C[C@H]3[C@@H](CC=C4C[C@@H](O)CC[C@@]43C)[C@@H]2CC[C@]12O[C@@H]1C[C@H](C)CN[C@H]1[C@H]2C [Cyclopamine] | 0 |
| CC(=O)N(O)CCCCCNC(=O)CCC(=O)N(O)CCCCCNC(=O)CCC(=O)N(O)CCCCCN [Deferoxamine] | 0 |
| CC(=O)c1c(C)c2cnc(Nc3ccc(N4CCNCC4)cn3)nc2n(C2CCCC2)c1=O [Palbociclib] | 0 |
| CC[C@@H]1C(=O)OC[C@@H]1Cc1cncn1C [Pilocarpine] | 0 |

Test system: DU-4475
Assay: as above
Conditions: incubation time: 72 h
Method in brief: as §1

| Structure (SMILES) | drug sensitivity score |
| --- | --- |
| CC1(C)CCC(CN2CCN(c3ccc(C(=O)NS(=O)(=O)c4ccc(NCC5CCOCC5)c([N+](=O)[O-])c4)c(Oc4cnc5[nH]ccc5c4)c3)CC2)=C(c2ccc(Cl)cc2)C1 [ABT-199] | 0 |
| Oc1ncnc2[nH]ncc12 [Allopurinol] | 0 |
| O=C1CN2Cc3c(ccc(Cl)c3Cl)N=C2N1 [Anagrelide] | 0 |
| CC1=C2C[C@H]3[C@@H](CC=C4C[C@@H](O)CC[C@@]43C)[C@@H]2CC[C@]12O[C@@H]1C[C@H](C)CN[C@H]1[C@H]2C [Cyclopamine] | 0 |
| CC(=O)N(O)CCCCCNC(=O)CCC(=O)N(O)CCCCCNC(=O)CCC(=O)N(O)CCCCCN [Deferoxamine] | 0 |
| C[C@]12CC[C@@H]3c4ccc(OC(=O)N(CCCl)CCCl)cc4CC[C@H]3[C@@H]1CC[C@@H]2O [Estramustine] | 0 |
